Experimental data: US5859029A, “Heterocyclic compounds method of preparing them and pharmeutical compositions in which they are present” (Sanofi, priority 1995, dated 1999)
Where a name gives a salt, the structure may show the parent alone.

Biological target: T1, NK1 receptors of IM9 human lymphoblasts (Homo sapiens, UniProt P25103)
T1 construct: NK1 receptors of IM9 human lymphoblasts; endogenous in cells; host or cells: IM9 human lymphoblasts
Experiment: Binding of [^125 I]BH-SP (substance P) to the NK1 receptors of human lymphoblasts
Details: read-out: inhibition constant Ki (binding of substance P to the human lymphoblast NK1 receptor)
Experimental: In ligand binding studies, the inhibition constant Ki is defined by the Cheng-Prusoff relationship (in Receptor Binding in Drug Research, eds. R. A. O'Brien, Marcel Dekker, New York, 1986): [formula] [L]: concentration of the ligand, Kd: dissociation constant of the ligand,
IC50 : concentration which inhibits the ligand binding by 50%.
The affinity of the compounds of formula (I) for the tachykinin receptors was evaluated in vitro by several biochemical tests using radioligands:
1°) The binding of [^125 I]BH-SP (substance P labeled with iodine-125 using Bolton-Hunter's reagent) to the NK1 receptors of human lymphoblasts.
The tests were performed according to X. Emonds-Alt et al. (Eur. J. Pharmacol., 1993, 2, 403-413).

T1 sequence (P25103 whole entry): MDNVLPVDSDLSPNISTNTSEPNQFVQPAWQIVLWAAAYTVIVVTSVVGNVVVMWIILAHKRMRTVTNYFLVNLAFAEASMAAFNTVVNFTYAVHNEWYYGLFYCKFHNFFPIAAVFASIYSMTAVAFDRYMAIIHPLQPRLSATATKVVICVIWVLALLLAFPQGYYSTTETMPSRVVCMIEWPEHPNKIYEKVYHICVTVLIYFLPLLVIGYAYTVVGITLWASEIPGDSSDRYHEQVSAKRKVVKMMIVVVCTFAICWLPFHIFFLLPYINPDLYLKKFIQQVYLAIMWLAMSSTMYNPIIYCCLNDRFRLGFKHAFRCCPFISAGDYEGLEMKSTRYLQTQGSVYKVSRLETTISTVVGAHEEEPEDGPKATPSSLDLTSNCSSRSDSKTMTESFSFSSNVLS

Row | Structure (SMILES) | Ki [nM]
1 | C[N+]1(CCC2(c3ccc(Cl)c(Cl)c3)CCC(=O)N(Cc3cc(C(F)(F)F)cc(C(F)(F)F)c3)C2)CCC(c2ccccc2)CC1 (stereo not shown) [Example 7, 1-Methyl-1-[2-[1-[3,5-bis(trifluoromethyl)benzyl]-5-(3,4-dichlorophenyl)-2-oxopiperid-5-yl]-ethyl]-4-phenylpiperidinium iodide] | ~0.1
2 | O=C1CCC(CCN2CCC(Cc3ccccc3)CC2)(c2ccc(Cl)c(Cl)c2)CN1Cc1ccccc1 (stereo not shown) [5-[2-(4-benzyl-1-piperid-1-yl)ethyl]-5-(3,4-dichlorophenyl)-1-benzylpiperid-2-one hydrochloride] | ~1000
3 | O=C1CC(CCN2CCC(O)(c3ccccc3)CC2)(c2ccc(Cl)c(Cl)c2)CN1Cc1cc(C(F)(F)F)cc(C(F)(F)F)c1 (stereo not shown) [Example 10, 4-(3,4-Dichlorophenyl)-4-[2-(4-hydroxy-4-phenylpiperid-1-yl)ethyl]-1-[3,5-bis(trifluoromethyl)benzyl]pyrrolidin-2-one hydrochloride] | ~0.1
4 | O=C1CC(CCN2CCC(O)(c3ccccc3)CC2)(c2ccc(Cl)c(Cl)c2)CCN1Cc1ccccc1 (stereo not shown) [1-benzyl-4-(3,4-dichlorophenyl)-4-[2-(4-hydroxy-4-phenylpiperid-1-yl)ethyl]piperid-2-one hydrochloride] | ~1000
